Data: ChEMBL document CHEMBL1201862, “PubChem BioAssay data set” (2004)
Calls of active or inactive are those of the source.

Key:
[1] = Luminescence-based cell-based high throughput dose response assay to identify activators of the DAF-12 from the parasite S. stercoralis (ssDAF-12).; format: functional
[2] = biological target: T1, Oxysterols receptor LXR-beta (Homo sapiens, UniProt P55055); assay: LXR agonists, Gal4 luciferase reporter, dose response, counter-screen for ssDAF-12 agonist project, cell-based, luminescence, HEK293, S. stercoralis campaign (AID 720737); format: functional; conditions: read-out: IC50 (the source's name)
T1 sequence (P55055 whole entry): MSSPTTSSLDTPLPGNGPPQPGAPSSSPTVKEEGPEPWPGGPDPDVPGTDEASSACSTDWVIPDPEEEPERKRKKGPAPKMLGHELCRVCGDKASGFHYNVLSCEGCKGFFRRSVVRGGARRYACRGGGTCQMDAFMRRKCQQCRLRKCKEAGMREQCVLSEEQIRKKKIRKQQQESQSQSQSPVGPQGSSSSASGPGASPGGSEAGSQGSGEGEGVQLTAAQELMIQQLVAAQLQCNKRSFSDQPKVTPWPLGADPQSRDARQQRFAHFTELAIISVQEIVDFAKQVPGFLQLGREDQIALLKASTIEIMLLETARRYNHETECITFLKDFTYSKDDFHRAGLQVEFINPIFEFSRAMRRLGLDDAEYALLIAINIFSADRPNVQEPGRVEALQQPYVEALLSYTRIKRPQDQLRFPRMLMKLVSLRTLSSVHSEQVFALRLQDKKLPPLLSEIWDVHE

[3] = P. falciparum late gametocyte killing, dose response, luminescence (AID 1117278); format: functional, cell-based;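 note: gametocytes exposed to compound for 24 hours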
[4] = Jurkat T cell cytotoxicity, dose response, cytotoxicity control for P. falciparum gametocyte viability project, luminescence (AID 1117277); format: functional, cell-based;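 note: potency reflects loss of cellular ATP meaning fewer viable cells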
[5] = M. tuberculosis growth inhibition, HTS (AID 449762); format: functional
[6] = biological target: T2, Heat shock factor protein 1 (Mus musculus, UniProt P38532); assay: HSF1 potentiators in luciferase reporter cells, confirmation, cell-based, NIH3T3, luminescence, dose retest (AID 435004); format: functional;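 note: stress induced by proteasome inhibitor MG132 added 30 min after compound; luciferase reporter driven by HSF1 response element in NIH3T3 cells; actives raise luminescence as potentiators of the MG132 stress response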
T2 sequence (P38532 whole entry): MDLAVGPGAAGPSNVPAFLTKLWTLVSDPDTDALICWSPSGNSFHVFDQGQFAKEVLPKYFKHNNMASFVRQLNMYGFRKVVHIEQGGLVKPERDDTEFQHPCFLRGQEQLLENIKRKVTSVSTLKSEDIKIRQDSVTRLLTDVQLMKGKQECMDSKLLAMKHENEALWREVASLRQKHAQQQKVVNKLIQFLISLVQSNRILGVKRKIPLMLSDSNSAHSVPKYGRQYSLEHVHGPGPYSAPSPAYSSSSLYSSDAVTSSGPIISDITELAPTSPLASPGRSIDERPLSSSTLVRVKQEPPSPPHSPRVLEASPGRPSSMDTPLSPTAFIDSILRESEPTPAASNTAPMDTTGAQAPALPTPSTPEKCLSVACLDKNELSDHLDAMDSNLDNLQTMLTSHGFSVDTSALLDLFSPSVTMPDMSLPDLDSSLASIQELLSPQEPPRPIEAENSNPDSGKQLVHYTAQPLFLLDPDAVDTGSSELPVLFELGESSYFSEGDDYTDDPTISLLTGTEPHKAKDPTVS

[7] = ADAM10 inhibitors, peptide cleavage, dose response, biochemical, QFRET (AID 743254);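 note: ADAM10 enzyme with the DM2 quenched FRET peptide as substrate; EDANS fluorescence gain as the protease cuts the substrate; inhibitor potency against ADAM10 proteolytic activity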
[8] = biological target: Disintegrin and metalloproteinase domain-containing protein 17 (Homo sapiens, UniProt P78536); assay: ADAM17 protease inhibitors, dose response, counter-screen for ADAM10 exosite inhibitor project, biochemical, quenched FRET substrate (AID 743253)
Chain of Disintegrin and metalloproteinase domain-containing protein 17 (P78536 whole entry, the tested form may be a part): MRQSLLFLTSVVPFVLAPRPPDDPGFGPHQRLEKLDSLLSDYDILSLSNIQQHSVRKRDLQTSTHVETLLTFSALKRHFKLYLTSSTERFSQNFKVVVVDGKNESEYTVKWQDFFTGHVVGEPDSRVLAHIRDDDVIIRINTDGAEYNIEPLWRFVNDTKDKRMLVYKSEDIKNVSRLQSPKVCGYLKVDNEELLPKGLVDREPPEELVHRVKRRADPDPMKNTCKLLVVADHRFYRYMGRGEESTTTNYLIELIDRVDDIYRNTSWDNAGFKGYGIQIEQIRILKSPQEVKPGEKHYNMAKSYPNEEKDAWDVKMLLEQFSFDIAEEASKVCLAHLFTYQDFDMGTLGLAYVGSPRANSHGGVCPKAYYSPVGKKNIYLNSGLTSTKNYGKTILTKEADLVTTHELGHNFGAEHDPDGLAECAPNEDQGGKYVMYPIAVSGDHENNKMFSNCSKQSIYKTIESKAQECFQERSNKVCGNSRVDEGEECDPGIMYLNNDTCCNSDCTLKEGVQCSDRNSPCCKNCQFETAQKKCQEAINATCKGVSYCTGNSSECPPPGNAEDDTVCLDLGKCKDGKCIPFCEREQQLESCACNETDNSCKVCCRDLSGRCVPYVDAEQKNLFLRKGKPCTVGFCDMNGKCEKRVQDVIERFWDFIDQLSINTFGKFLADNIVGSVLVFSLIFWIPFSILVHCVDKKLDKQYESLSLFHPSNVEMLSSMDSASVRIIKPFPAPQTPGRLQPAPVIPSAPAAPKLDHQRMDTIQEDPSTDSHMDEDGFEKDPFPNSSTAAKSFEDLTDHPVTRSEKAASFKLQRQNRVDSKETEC

Paired box protein Pax-8 = Paired box protein Pax-8 (Homo sapiens, UniProt Q06710); assay: inhibitors of PAX8-driven TPO luciferase reporter, dose response, RMG-I cells, cherry-pick (AID 687027); format: functional, cell-based;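 note: luciferase reporter driven by Pax8 target thyroperoxidase promoter measured by SteadyGlo luminescence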
Chain of Paired box protein Pax-8 (Q06710 whole entry): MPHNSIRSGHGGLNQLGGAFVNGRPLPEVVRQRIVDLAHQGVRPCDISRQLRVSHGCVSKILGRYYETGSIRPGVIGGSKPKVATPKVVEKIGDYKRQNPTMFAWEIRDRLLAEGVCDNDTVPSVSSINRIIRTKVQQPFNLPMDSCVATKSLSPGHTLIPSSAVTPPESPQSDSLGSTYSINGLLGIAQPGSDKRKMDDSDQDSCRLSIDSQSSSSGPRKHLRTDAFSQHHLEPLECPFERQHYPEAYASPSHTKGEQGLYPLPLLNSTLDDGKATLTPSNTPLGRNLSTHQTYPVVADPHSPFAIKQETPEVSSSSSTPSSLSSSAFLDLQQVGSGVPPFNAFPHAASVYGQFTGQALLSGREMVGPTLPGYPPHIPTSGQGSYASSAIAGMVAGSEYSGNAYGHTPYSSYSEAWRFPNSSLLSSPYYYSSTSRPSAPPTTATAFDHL

[9] = cytotoxicity in COV362 ovarian cancer cells, dose response, cytotoxicity control for PAX8 inhibitor project, cell-based, plate reader, dry powder, SA12 (AID 743144); format: functional
[10] = IOSE-T80 ovarian epithelial cell cytotoxicity, dose response, cytotoxicity control for PAX8 inhibitor project, plate reader, dry powder samples (AID 743045); format: functional, cell-based
[11] = A2780 ovarian cancer cell cytotoxicity, dose response, cytotoxicity control, plate reader, dry powder samples (AID 743046); format: functional, cell-based
[12] = NIH:OVCAR-3 ovarian cancer cell cytotoxicity, dose response, PAX8 inhibitor project, plate reader, dry powder samples (AID 743044); format: functional, cell-based
[13] = IGROV1 ovarian cancer cell cytotoxicity, dose response, PAX8 inhibitor project, plate reader, dry powder samples (AID 743043); format: functional, cell-based; conditions: IGROV-1
[14] = cytotoxicity in OVCAR4 cells, dose response, cytotoxicity control for PAX8 inhibitor project, cell-based, plate reader, dry powder, SA11 (AID 743150); format: functional; conditions: OVCAR-4
[15] = cytotoxicity in COV434 cells, dose response, cytotoxicity control for PAX8 inhibitor project, cell-based, plate reader, dry powder, SA7 (AID 743145); format: functional
[16] = cytotoxicity in OV-90 ovarian cancer cells, dose response, PAX8 inhibitor project, cell-based, plate reader, dry powder, SA8 (AID 743149); format: functional
[17] = cytotoxicity dependent on PAX8, dose response, cell-based, plate reader, dry powder (AID 743049); format: functional
[18] = Shn3 3'UTR reporter inhibitors, dose response, cell-based, Clone20 osteoblasts, firefly luciferase, cherry-picked (AID 624132); format: functional;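 note: firefly luciferase luminescence from reporter carrying the Shn3 3'UTR in osteoblasts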
[19] = HepG2 cell cytotoxicity, dose response, cytotoxicity control for Shn3 inhibitor project, CellTiter-Glo, cherry-picked (AID 624134); format: functional, cell-based
[20] = control 3'UTR Renilla luciferase suppression, dose response, counter-screen for Shn3 inhibitor project, cell-based, Clone20-Shn3RL, cherry-picked (AID 624133); format: functional
[21] = biological target: COUP transcription factor 2 (Homo sapiens, UniProt P24468); assay: Luminescence-based cell-based high throughput dose response assay to identify inhibitors of COUP-TFII (NR2F2).; format: functional;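 note: HEK293 cells transiently cotransfected with COUP-TFII expression vector and reporter; luciferase reporter luminescence driven by COUP-TFII from the pX2-168 reporter plasmid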
Chain of COUP transcription factor 2 (P24468 whole entry): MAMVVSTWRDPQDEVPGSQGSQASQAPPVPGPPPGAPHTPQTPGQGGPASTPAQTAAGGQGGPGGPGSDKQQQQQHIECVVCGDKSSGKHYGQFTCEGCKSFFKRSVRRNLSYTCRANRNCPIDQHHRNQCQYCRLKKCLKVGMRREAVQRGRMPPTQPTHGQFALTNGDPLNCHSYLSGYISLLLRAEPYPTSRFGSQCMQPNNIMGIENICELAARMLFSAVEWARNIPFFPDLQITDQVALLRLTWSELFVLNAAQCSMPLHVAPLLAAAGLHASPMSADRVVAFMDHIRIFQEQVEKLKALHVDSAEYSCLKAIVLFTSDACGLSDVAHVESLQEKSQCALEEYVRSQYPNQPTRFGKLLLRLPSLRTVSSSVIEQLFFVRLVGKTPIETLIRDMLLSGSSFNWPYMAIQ

[22] = biological target: NAD-dependent protein deacylase sirtuin-5, mitochondrial (Homo sapiens, UniProt Q9NXA8); assay: SIRT5 desuccinylase inhibitors, dose response, biochemical, fluorescence imaging, cherry-pick, set 5 (AID 720591);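 note: desuccinylation of succinyl peptide AMC substrate read as fluorescence after trypsin release; potency of inhibitors that lower fluorescence and may act on trypsin instead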
Chain of NAD-dependent protein deacylase sirtuin-5, mitochondrial (Q9NXA8 whole entry): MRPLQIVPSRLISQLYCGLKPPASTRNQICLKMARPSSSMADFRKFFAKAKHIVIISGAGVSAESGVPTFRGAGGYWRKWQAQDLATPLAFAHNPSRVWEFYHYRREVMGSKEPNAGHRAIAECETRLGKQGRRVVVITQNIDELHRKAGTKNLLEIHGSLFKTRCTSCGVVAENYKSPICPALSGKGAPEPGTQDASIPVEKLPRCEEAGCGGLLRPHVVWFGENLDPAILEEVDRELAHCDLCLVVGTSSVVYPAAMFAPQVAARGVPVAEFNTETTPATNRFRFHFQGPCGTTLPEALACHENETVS

[23] = CTGF mRNA reduction under YAP1 overexpression, dose response, mechanism study for YAP1 pathway inhibitor project, DLD1 cells, RT-qPCR, cherry-pick (AID 1053127); format: functional, cell-based; conditions: DLD-1
[24] = YAP1 pathway inhibition via CTGF transcript levels, dose response, cell-based, DLD1 colon cancer, RT-qPCR, cherry-pick (AID 1053122); format: functional; conditions: Cancer cell lines
[25] = cytotoxicity in OVCAR8 ovarian cancer cells, dose response, PAX8 project, cell-based, plate reader, dry powder samples (AID 743197); format: functional; conditions: OVCAR-8
[26] = Concentration-dependent survival of SW480 colon cancer line, luminescence detection with CellTiter-Glo, half-maximal inhibitory concentration (AID 1117338); format: functional
[27] = RKO cell viability reduction, dose response, CellTiter-Glo luminescence (AID 1117322); format: functional
[28] = cytotoxicity toward HCT116 cells – cell-based, CellTiter-Glo luminescence, IC50, dose response (AID 1117332); format: functional; conditions: HCT-116
[29] = SNU-C1 cell viability reduction, dose response, CellTiter-Glo luminescence (AID 1117323); format: functional, cell-based
[30] = cytotoxicity toward Colo320 cells – cell-based, CellTiter-Glo luminescence, IC50, dose response (AID 1117334); format: functional; conditions: COLO 320
[31] = cytotoxicity toward HT-29 cells – cell-based, CellTiter-Glo luminescence, IC50, dose response (AID 1117330); format: functional
[32] = CellTiter-Glo luminescent dose response of DLD-1 viability loss (AID 1117352); format: functional
[33] = HCT116 cell viability decrease, GSK3B pretreatment – CellTiter-Glo, IC50, dose response (AID 1117339); format: functional; conditions: HCT-116
[34] = biological target: Heat shock protein HSP 90-alpha (Homo sapiens, UniProt P07900); assay: Luminescence-based dose response biochemical high throughput screening assay for inhibitors of the Heat Shock Protein 90 (HSP90). [Related pubchem assays: 1831 (Summary AID.), 1846 (Confirmation screen.), 1789 (Primary screen.)]

## Cc1ccc([N+](=O)[O-])c2c1C(N1CC(C)OC(C)C1)C(C)(C)O2 (stereo not drawn)
[1]
  IC50: > 67.6 µM (inactive)
[2]
  EC50: > 67.6 µM (inactive)

## CC(=O)c1ccc(NC(=O)c2ccc(S(=O)(=O)c3ccccc3)cc2)cc1
[3]
  IC50: > 109 µM (inactive)
[4]
  IC50: > 83.3 µM (inactive)

## O=C(COc1cc(O)c2c(=O)c3ccccc3oc2c1)OCc1ccccc1
[5]
  IC50: > 100 µM (active)

## O=C(Nc1cccc(Cl)c1)c1cc(S(=O)(=O)NCCc2ccc(Cl)cc2)ccc1F
[6]
  EC50: > 260 µM (inactive)
[7]
  IC50: > 7.72 µM (active)
[8]
  IC50: > 69.5 µM (inactive)

## O=C(CCCN1C(=O)/C(=C\c2cccc(Br)c2)SC1=S)Nc1cccnc1
Paired box protein Pax-8
  AC50: 7.56 µM (active)
[9]
  AC50: 30.3 µM (active)
[10]
  AC50: 24.8 µM (active)
[11]
  AC50: 17.9 µM (active)
[12]
  AC50: 12 µM (active)
[13]
  AC50: 12.5 µM (active)
[14]
  AC50: 30.3 µM (active)
[15]
  AC50: 31.6 µM (active)
[16]
  AC50: 25.7 µM (active)
[17]
  AC50: 12.1 µM (active)

## Cn1c(=O)c2nc(CCCCCCCCc3nc4ccccc4[nH]3)[nH]c2n(C)c1=O
[18]
  AC50: 3.98 µM (active)
[19]
  AC50: 3.88 µM (active)
[20]
  AC50: 2.89 µM (active)
[21]
  IC50: 7.5 µM (active)

## CN(C)CCN1CCN(C2CN(Cc3cn(Cc4cccc(Cl)c4)nn3)S(=O)(=O)C2)CC1 (stereo not drawn)
[22]
  AC50: > 30 µM (inactive)

## O=C(Cc1ccncc1)N1CCCCN2[C@H](C1)[C@H](c1ccc(C#Cc3ccccc3F)cc1)[C@@H]2CO
Paired box protein Pax-8
  AC50: 7.15 µM (active)
[23]
  AC50: 0.102 µM (active)
[12]
  AC50: 3.05 µM (active)
[13]
  AC50: 10.3 µM (active)
[24]
  AC50: 0.175 µM (active)
[25]
  AC50: > 70 µM (inactive)

## COC(=O)CCCCC(CCSS/C(CCO)=C(\C)N(C=O)Cc1cnc(C)nc1N)SC(C)=O (stereo not drawn)
[26]
  IC50: > 20 µM (inactive)
[27]
  IC50: > 20 µM (inactive)
[28]
  IC50: > 20 µM (inactive)
[29]
  IC50: > 20 µM (inactive)
[30]
  IC50: > 20 µM (inactive)
[31]
  IC50: > 20 µM (inactive)
[32]
  IC50: > 20 µM (inactive)
[33]
  IC50: > 20 µM (inactive)

## CC(=O)c1ccc(N=Nc2c(C)[nH]n(-c3ccccc3)c2=O)cc1
[34]
  IC50: 4.4 µM (active)
